Laboratory results published in patent US20230278972A1, “SUBSTITUTED HALOALKYL SULFONANILIDE HERBICIDES” (FMC Corporation, priority 2020, published 2023).

What was measured:
Assay type in all cases: in vivo
[1] = tested on: blackgrass (Alopecurus myosuroides); test: Test A1 preemergence, blackgrass
Description: (§1) Seeds of plant species selected from, blackgrass (Alopecurus myosuroides), corn (Zea mays), Foxtail, Giant (giant foxtail, Setaria faberi), goosegrass (Eleusine indica), kochia (Bassia scoparia), Oat, Wild (wild oat, Avena fatua), Pigweed, Palmer (palmer amaranth, palmer pigweed, Amaranthus palmeri), ragweed (common ragweed, Ambrosia artemisiifolia), Ryegrass, Italian (Italian ryegrass, Lolium multiflorum), soybean (Glycine max), and wheat (Triticum aestivum) were planted into a blend of loam soil and sand and treated preemergence with a directed soil spray using test chemicals formulated in a non-phytotoxic solvent mixture which included a surfactant. At the same time, plants selected from these crop and weed species and also galium (catchweed bedstraw, Galium aparine) and horseweed (Erigeron canadensis) were planted in pots containing the same blend of loam soil and sand and treated with postemergence applications of test chemicals formulated in the same manner. Plants ranged in height from 2 to 10 cm and were in the one- to two-leaf stage for the postemergence treatment. […] A dash (-) response means no test result.

corn (Zea mays) [2] = test: Test A1 preemergence, corn
Description: as §1

[3] = tested on: Foxtail, Giant (giant foxtail, Setaria faberi); test: Test A1 preemergence, Foxtail, Giant
Description: as §1

[4] = tested on: goosegrass (Eleusine indica); test: Test A1 preemergence, goosegrass
Description: as §1

kochia (Bassia scoparia) [5] = test: Test A1 preemergence, kochia
Description: as §1

[6] = tested on: Oat, Wild (wild oat, Avena fatua); test: Test A1 preemergence, Oat, Wild
Description: as §1

[7] = tested on: Pigweed, Palmer (palmer amaranth, palmer pigweed, Amaranthus palmeri); test: Test A1 preemergence, Pigweed, Palmer
Description: as §1

[8] = tested on: ragweed (common ragweed, Ambrosia artemisiifolia); test: Test A1 preemergence, ragweed
Description: as §1

[9] = tested on: Ryegrass, Italian (Italian ryegrass, Lolium multiflorum); test: Test A1 preemergence, Ryegrass, Italian
Description: as §1

soybean (Glycine max) [10] = test: Test A1 preemergence, soybean
Description: as §1

[11] = tested on: wheat (Triticum aestivum); test: Test A1 preemergence, wheat
Description: as §1

[12] = tested on: blackgrass (Alopecurus myosuroides); test: Test A1 postemergence, blackgrass; settings: Postemergence, 0 to 100 scale (0 no effect, 100 complete control)
Description: as §1

corn (Zea mays) [13] = test: Test A1 postemergence, corn; settings: Postemergence
Description: as §1

[14] = tested on: Foxtail, Giant (giant foxtail, Setaria faberi); test: Test A1 postemergence, Foxtail, Giant; settings: Postemergence
Description: as §1

[15] = tested on: goosegrass (Eleusine indica); test: Test A1 postemergence, goosegrass; settings: Postemergence
Description: as §1

kochia (Bassia scoparia) [16] = test: Test A1 postemergence, kochia; settings: Postemergence
Description: as §1

[17] = tested on: Oat, Wild (wild oat, Avena fatua); test: Test A1 postemergence, Oat, Wild; settings: Postemergence
Description: as §1

[18] = tested on: Pigweed, Palmer (palmer amaranth, palmer pigweed, Amaranthus palmeri); test: Test A1 postemergence, Pigweed, Palmer; settings: Postemergence
Description: as §1

[19] = tested on: ragweed (common ragweed, Ambrosia artemisiifolia); test: Test A1 postemergence, ragweed; settings: Postemergence
Description: as §1

[20] = tested on: Ryegrass, Italian (Italian ryegrass, Lolium multiflorum); test: Test A1 postemergence, Ryegrass, Italian; settings: Postemergence
Description: as §1

soybean (Glycine max) [21] = test: Test A1 postemergence, soybean; settings: Postemergence
Description: as §1

[22] = tested on: wheat (Triticum aestivum); test: Test A1 postemergence, wheat; settings: Postemergence
Description: as §1

[23] = tested on: galium (catchweed bedstraw, Galium aparine); test: Test A1 postemergence, galium; settings: Postemergence
Description: as §1

[24] = tested on: barnyardgrass (Echinochloa crus-galli); test: Test B1 flooded paddy test, barnyardgrass; settings: 250 g ai/ha, Flood, applied to paddy water, 2-leaf stage, visually evaluated after 10 to 14 days
Description: (§2) A dash (-) response means no test result.

[25] = tested on: ducksalad (Heteranthera limosa); test: Test B1 flooded paddy test, ducksalad; settings: 250 g ai/ha, Flood, applied to paddy water, 2-leaf stage, visually evaluated after 10 to 14 days
Description: as §2

rice (Oryza sativa) = test: Test B1 flooded paddy test, rice; settings: 250 g ai/ha, Flood, applied to paddy water, 2-leaf stage, visually evaluated after 10 to 14 days
Description: as §2

[26] = 31 g ai/ha, 0 to 100 scale (0 no effect, 100 complete control)
[27] = 125 g ai/ha, 0 to 100 scale, 0 no effect, 100 complete control
[28] = 31 g ai/ha, 0 to 100 scale (0 no effect, 100 complete control), 10 days

Cc1cc(C)c(C2=NOC3(C)CCCC23)cc1NS(=O)(=O)C(F)(F)F (stereo not shown) [Compound 340]
Plant response rating, Blackgrass [1, 26]: 60
Plant response rating, Blackgrass [1, 27]: 90
Plant response rating, Corn (corn (Zea mays) [2]; [26]): 0
Plant response rating, Corn (corn (Zea mays) [2]; [27]): 90
Plant response rating, Foxtail, Giant [3, 26]: 50
Plant response rating, Foxtail, Giant [3, 27]: 100
Plant response rating, Goosegrass [4, 26]: 100
Plant response rating, Goosegrass [4, 27]: 100
Plant response rating, Kochia (kochia (Bassia scoparia) [5]; [27]): 60
Plant response rating, Oat, Wild [6, 26]: 0
Plant response rating, Oat, Wild [6, 27]: 90
Plant response rating, Pigweed, Palmer [7, 26]: 60
Plant response rating, Pigweed, Palmer [7, 27]: 100
Plant response rating, Ragweed [8, 26]: 10
Plant response rating, Ragweed [8, 27]: 90
Plant response rating, Ryegrass, Italian [9, 26]: 50
Plant response rating, Ryegrass, Italian [9, 27]: 100
Plant response rating, Soybean (soybean (Glycine max) [10]; [26]): 40
Plant response rating, Soybean (soybean (Glycine max) [10]; [27]): 90
Plant response rating, Wheat [11, 26]: 20
Plant response rating, Wheat [11, 27]: 90
Plant response rating, Blackgrass ([12]; 31 g ai/ha, 10 days): 0
Plant response rating, Blackgrass ([12]; 125 g ai/ha): 20
Plant response rating, Corn (corn (Zea mays) [13]; [28]): 20
Plant response rating, Corn (corn (Zea mays) [13]; 125 g ai/ha, 0 to 100 scale): 50
Plant response rating, Foxtail, Giant [14, 28]: 10
Plant response rating, Foxtail, Giant ([14]; 125 g ai/ha, 0 to 100 scale): 50
Plant response rating, Goosegrass [15, 28]: 60
Plant response rating, Goosegrass ([15]; 125 g ai/ha, 0 to 100 scale): 90
Plant response rating, Kochia (kochia (Bassia scoparia) [16]; [28]): 20
Plant response rating, Kochia (kochia (Bassia scoparia) [16]; 125 g ai/ha, 0 to 100 scale): 50
Plant response rating, Oat, Wild [17, 28]: 0
Plant response rating, Oat, Wild ([17]; 125 g ai/ha, 0 to 100 scale): 20
Plant response rating, Pigweed, Palmer [18, 28]: 0
Plant response rating, Pigweed, Palmer ([18]; 125 g ai/ha, 0 to 100 scale): 30
Plant response rating, Ragweed [19, 28]: 70
Plant response rating, Ragweed ([19]; 125 g ai/ha, 0 to 100 scale): 80
Plant response rating, Ryegrass, Italian [20, 28]: 0
Plant response rating, Ryegrass, Italian ([20]; 125 g ai/ha, 0 to 100 scale): 20
Plant response rating, Soybean (soybean (Glycine max) [21]; [28]): 50
Plant response rating, Soybean (soybean (Glycine max) [21]; 125 g ai/ha, 0 to 100 scale): 60
Plant response rating, Wheat [22, 28]: 50
Plant response rating, Wheat ([22]; 125 g ai/ha, 0 to 100 scale): 70
Plant response rating, Galium [23, 28]: 50
Plant response rating, Galium ([23]; 125 g ai/ha, 0 to 100 scale): 80
Plant response rating, Barnyardgrass (0 to 100 scale, 0 is no effect, 100 is complete control) [24]: 85
Plant response rating, Ducksalad (0 to 100 scale, 0 is no effect, 100 is complete control) [25]: 45
Plant response rating, Rice (0 to 100 scale, 0 is no effect, 100 is complete control) (rice (Oryza sativa)): 10

Cc1cc(C)c(N(COC(=O)C(C)(C)C)S(=O)(=O)C(F)(F)F)cc1C1=NOC2(C)CCCC12 (stereo not shown) [Compound 341]
Plant response rating, Blackgrass [1, 26]: 0
Plant response rating, Blackgrass [1, 27]: 30
Plant response rating, Corn (corn (Zea mays) [2]; [26]): 0
Plant response rating, Corn (corn (Zea mays) [2]; [27]): 0
Plant response rating, Foxtail, Giant [3, 26]: 0
Plant response rating, Foxtail, Giant [3, 27]: 50
Plant response rating, Goosegrass [4, 26]: 30
Plant response rating, Goosegrass [4, 27]: 100
Plant response rating, Kochia (kochia (Bassia scoparia) [5]; [26]): 0
Plant response rating, Kochia (kochia (Bassia scoparia) [5]; [27]): 40
Plant response rating, Oat, Wild [6, 26]: 0
Plant response rating, Oat, Wild [6, 27]: 0
Plant response rating, Pigweed, Palmer [7, 26]: 0
Plant response rating, Pigweed, Palmer [7, 27]: 20
Plant response rating, Ragweed [8, 26]: 0
Plant response rating, Ragweed [8, 27]: 0
Plant response rating, Ryegrass, Italian [9, 26]: 0
Plant response rating, Ryegrass, Italian [9, 27]: 40
Plant response rating, Soybean (soybean (Glycine max) [10]; [26]): 0
Plant response rating, Soybean (soybean (Glycine max) [10]; [27]): 0
Plant response rating, Wheat [11, 26]: 0
Plant response rating, Wheat [11, 27]: 0
Plant response rating, Blackgrass ([12]; 31 g ai/ha, 10 days): 0
Plant response rating, Blackgrass ([12]; 125 g ai/ha): 0
Plant response rating, Corn (corn (Zea mays) [13]; [28]): 0
Plant response rating, Corn (corn (Zea mays) [13]; 125 g ai/ha, 0 to 100 scale): 0
Plant response rating, Foxtail, Giant [14, 28]: 0
Plant response rating, Foxtail, Giant ([14]; 125 g ai/ha, 0 to 100 scale): 20
Plant response rating, Goosegrass [15, 28]: 0
Plant response rating, Goosegrass ([15]; 125 g ai/ha, 0 to 100 scale): 60
Plant response rating, Kochia (kochia (Bassia scoparia) [16]; [28]): 20
Plant response rating, Kochia (kochia (Bassia scoparia) [16]; 125 g ai/ha, 0 to 100 scale): 30
Plant response rating, Oat, Wild [17, 28]: 0
Plant response rating, Oat, Wild ([17]; 125 g ai/ha, 0 to 100 scale): 20
Plant response rating, Pigweed, Palmer [18, 28]: 0
Plant response rating, Pigweed, Palmer ([18]; 125 g ai/ha, 0 to 100 scale): 20
Plant response rating, Ragweed [19, 28]: 60
Plant response rating, Ragweed ([19]; 125 g ai/ha, 0 to 100 scale): 80
Plant response rating, Ryegrass, Italian [20, 28]: 0
Plant response rating, Ryegrass, Italian ([20]; 125 g ai/ha, 0 to 100 scale): 0
Plant response rating, Soybean (soybean (Glycine max) [21]; [28]): 40
Plant response rating, Soybean (soybean (Glycine max) [21]; 125 g ai/ha, 0 to 100 scale): 50
Plant response rating, Wheat [22, 28]: 0
Plant response rating, Wheat ([22]; 125 g ai/ha, 0 to 100 scale): 70
Plant response rating, Galium [23, 28]: 50
Plant response rating, Galium ([23]; 125 g ai/ha, 0 to 100 scale): 80
Plant response rating, Barnyardgrass (0 to 100 scale, 0 is no effect, 100 is complete control) [24]: 95
Plant response rating, Ducksalad (0 to 100 scale, 0 is no effect, 100 is complete control) [25]: 45
Plant response rating, Rice (0 to 100 scale, 0 is no effect, 100 is complete control) (rice (Oryza sativa)): 55
